Data set [1] relates to rabbit blood platelets (platelet rich plasma), thrombin-induced aggregation. The data set can be described thus: inhibition of platelet aggregation in rabbit platelet rich plasma (in vitro), induced by thrombin. The class given is cell-based. Conditions: Oryctolagus cuniculus, read-out: percentage of inhibition, thrombin. The procedure: (§1) In this example, the inhibition of platelet aggregation in rabbit platelet rich plasma (in vitro) is tested.
The thus obtained blood is centrifuged at 1,000 rpm for 15 minutes to obtain platelet rich plasma (referred to as "PRP" hereinafter). The aggregation of blood platelets is observed using an aggregometer (made by Bryston Co.) and the degree of aggregation after the addition of aggregation promoting substances is measured by nephelometry, i.e., through increase in light transmission.
(§2) The PRP (0.9 ml) is placed in a silicon-coated cuvett of the aggregometer. Then, 0.05 ml of physiological saline solution containing various concentrations of test reagents or control reagents is added and the mixture is allowed to stand for one minute. Compounds promoting aggregation are then added and the absorbancy of the solution is measured and the percent inhibition of aggregation is calculated according to the following equation: [formula] C: Transmittancy showing the maximum percent aggregation by physiological saline solution
(§3) D: Transmittancy showing the maximum percent aggregation by sample
(§4) Test for the inhibition of platelet aggregation induced by ADP, collagen and thrombin.

The subject of data set [2] is human platelet rich plasma, collagen-induced aggregation. The data set can be described thus: inhibition of platelet aggregation in human platelet rich plasma, induced by collagen. Conditions: read-out: percentage inhibition, collagen; for inhibition at 10 µg/mL: 10 μg/ml. In kind it is cell-based. The procedure:
(§5) In this test, 9 vol. of blood is sampled from the carotid artery of rabbits (2 to 2.5 Kg) and placed in a silicon-coated flask containing 1 vol. of 3.8% sodium citrate. The thus obtained blood is centrifuged at 1,000 rpm for 15 minutes to obtain platelet rich plasma (referred to as "PRP" hereinafter). The aggregation of blood platelets is observed using an aggregometer (made by Bryston Co.) and the degree of aggregation after the addition of aggregation promoting substances is measured by nephelometry, i.e., through increase in light transmission.
as §2, §3
(§6) In this example, the same procedures are repeated as in Example 10 except that human platelet rich plasma is used in place of rabbit platelet rich plasma.

In data set [3] the test system is mice, death by ADP injection. Kind of data set: prevention of death of mice by ADP addition (in vivo), oral administration. The settings on record: for effect in reducing mortality (ADP): in words, oral or intravenous administration, Table 3; for Mortality / Score (mortality): oral, 100 mg/Kg, ADP i.v. after one hour. The procedure:
(§7) In this example, prevention of death of mice by ADP addition (in vivo) is tested. It is shown that intravenous administration of a great amount of ADP to mice causes aggregated blood platelets to be captured in the pulmonary capillaries so that the mice die of respiratory distress.
The test is carried out according to Roba's method. [Eur. J. Pharmacol. 37, 265-274 (1976)]. Specifically, CMC solution (0.3%) and CMC suspension containing the test compound and control compounds are orally administered to mice in a ratio of 0.1 ml/10 g (body weight). After one hour, an aqueous solution of ADP (60 mg/ml) is injected into the tail vein in a volume of 0.1 ml/10 g (body weight) every 10 seconds and the mortality is calculated.

The subject of data set [4] is rabbit blood platelets (platelet rich plasma), ADP-induced aggregation. Kind of data set: inhibition of platelet aggregation in rabbit platelet rich plasma (in vitro), induced by ADP. The class given is cell-based. Conditions: Oryctolagus cuniculus, Platelet; for inhibition at 1 µg/mL: 1 μg/ml; for inhibition at 3 µg/mL: 3 μg/ml; for inhibition at 10 µg/mL: 10 μg/ml. On the procedure:
as §1, §5, §2, §3, §4

For data set [5], the system named is human platelet rich plasma, ADP-induced aggregation. The data set can be described thus: inhibition of platelet aggregation in human platelet rich plasma, induced by ADP. The class given is cell-based. The settings on record: read-out: percentage inhibition, ADP; for inhibition at 10 µg/mL: 10 μg/ml. On the procedure:
as §5, §2, §3, §6

The test system of data set [6] is mice (male dd-strain), death by sodium arachidonate. Kind of data set: prevention of death of mice by sodium arachidonate. Conditions: sodium arachidonate 50 mg/Kg i.v. two hours thereafter. The class given is in vivo. On the procedure: When a large amount of arachidonic acid is intravenously administrated to a mouse, blood platelet aggregates are formed and caught by the microvasculature system of the lung. As a result, the mouse expires due to dyspnea.
To examine the effect of a medicine in vivo, the medicine is orally administered to test animals and thereafter arachidonic acid is administered.
In this example, the test was carried out according to the method by Uzunova A. D. et al. [Prostaglandins 13, p. 995 (1977)] Specifically, a CMC suspension consisting of 0.3% CMC solution and a medicine (test compound and reference medicine) was orally administered to mice (male dd-strain, 22-24 g). Two hours thereafter, 50 mg/Kg of sodium arachidonate was intravenously administered to the mice.

In data set [7] the test system is mice, death by ADP injection. The data set can be described thus: prevention of death of mice by ADP addition (in vivo), intravenous administration. The settings on record: 10 mg/Kg, ADP-Na ten minutes thereafter. The procedure: as §7
In order to check the effect by intravenous administration, physiological saline solution and physiological saline solution containing the test reagents (0.5 mg/ml) is injected into the tail vein in a volume of 0.2 ml/10 g (body weight). Ten minutes thereafter (10 mg/kg) ADP-Na is injected into the tail vein as in the oral test, and the mortality is calculated.

Data set [8] concerns rabbit blood platelets (platelet rich plasma), collagen-induced aggregation. The data set can be described thus: inhibition of platelet aggregation in rabbit platelet rich plasma (in vitro), induced by collagen. The class given is cell-based. Conditions: Oryctolagus cuniculus, Platelet; for inhibition at 1 µg/mL: 1 μg/ml; for inhibition at 3 µg/mL: 3 μg/ml; for inhibition at 10 µg/mL: 10 μg/ml. On the procedure: as §1, §5, §2, §3, §4

The subject of another data set is mouse (male dd-strain). Kind of data set: acute toxicity, Behrens-Karber's method. In kind it is in vivo. The settings on record: oral. The procedure: (§8) In this example, the acute toxicity of compounds of the invention is determined by Behrens-Karber's method using, 5 male dd-strain for each group weighing 20±1 g. A 0.3% CMC suspension of the test compound (concentration of the test compound: 100 mg/ml) is then orally administered to each mouse.

Data set [9] can be described thus: acute toxicity, Behrens-Karber's method. The class given is in vivo. The settings on record: in vivo; mouse, oral. The procedure: as §8
The next data set in a line: solubility. The class given is physicochemical.
[10] abbreviates: read-out: percentage of inhibition, ADP.
Where [11] appears, read: read-out: percentage of inhibition, collagen.
[12] abbreviates: rabbit PRP, ADP 10^-5 M, read-out: percentage of inhibition, ADP.
Where [13] appears, read: rabbit PRP, ADP 10^-5 M, 30 μg/ml, read-out: percentage of inhibition, ADP.
Setting [14] is: rabbit PRP, read-out: percentage of inhibition, collagen.

Values after ≈ are worked out from the molar mass of the structure shown. Where two headings read alike, the source gives them in different places. A value given as a limit tells only on which side of the number the result lay.

The inhibition is the change of the read-out against control, counted positive when it falls. Regarding `CC(=O)Oc1ccccc1C(=O)O` [Aspirin, reference compound], the inhibition at 30 µg/mL was 21% in data set [1], 48% in data set [2] (Homo sapiens), 7% in data set [5] (Homo sapiens) and 20% in [8] (setting [11]). The inhibition at 100 µg/mL in [1] was determined as 65%; in [2] (Homo sapiens), 86%; in data set [5] (Homo sapiens), 20%; in data set [8] (setting [11]), 34%. Also, the “effect in reducing mortality (ADP)” value in data set [3] was “ineffective”. Moreover, the Mortality in data set [3] was determined as 80%; in data set [6] (oral 12.5 mg/Kg), 50%; in data set [6] (oral 25 mg/Kg), 10%; in data set [7], 70%. The “Score (mortality)” value in [3] is 8/10; in data set [6] (oral 12.5 mg/Kg), 5/10; in [6] (oral 25 mg/Kg), 1/10; in [7], 7/10. For the same compound, the inhibition at 300 µg/mL is 0% in data set [4] (setting [10]) and 48% in [8] (setting [11]).

What is called LD50 is the dose expected to kill half of the subjects tested. By IC50 is commonly meant the concentration that gives 50% inhibition. Take `O=C(NCCO)c1ccccc1SSc1ccccc1C(=O)NCCO` [Compound III, 2,2'-dithiobis(N-2-hydroxyethylbenzamide)]: the inhibition at 10 µg/mL in [2] (human PRP) came out at 20%; in data set [4] (setting [12]), 69.1%; in data set [5] (human PRP), 15%; in data set [8] (setting [14]), 100%. For the same compound, the inhibition at 30 µg/mL in data set [2] (human PRP, 30 μg/ml) was 66%; in data set [4] (setting [13]), 100%; in data set [5] (human PRP, 30 μg/ml), 43%. Also, the inhibition at 100 µg/mL in [2] (human PRP, 100 μg/ml) was found to be 100%; in data set [5] (human PRP, 100 μg/ml), 98%. The results for the Mortality in [3], in data set [6] (oral 50 mg/Kg) and in [6] (oral 100 mg/Kg) were 20%, 70% and 40%, respectively. Further, the “Score (mortality)” value in [3] was 2/10; in [6] (oral 50 mg/Kg), 7/10; in data set [6] (oral 100 mg/Kg), 4/20. For the same compound, the mortality rate in the data set with mouse (male dd-strain) (1 g/Kg) is 0/5; in the data set with mouse (male dd-strain) (2 g/Kg) it was 1/5; in the data set on mouse (male dd-strain) (3 g/Kg), 4/5; with mouse (male dd-strain) (4 g/Kg), 4/5. Further, the LD50 in [9] was at least 2000 mg/kg. Besides, the IC50 in data set [4] (rabbit PRP, ADP 10^-5 M) worked out at 4.8 µg/mL (≈ 12.2 µM); in [8] (rabbit PRP) it was 1.1 µg/mL (≈ 2.8 µM). The inhibition at 1 µg/mL in data set [4] (setting [12]) amounted to 21.3%; in data set [8] (setting [14]), 39.2%. In addition, the figures for the inhibition at 3 µg/mL in [4] (setting [12]) and in data set [8] (setting [14]) were 33.4% and 88.5%, respectively. Moreover, in data set [8] (rabbit PRP, 0.3 μg/ml, read-out: percentage of inhibition, collagen), the inhibition at 0.3 µg/mL turned out to be 11%.

Turning to `CC(O)CNC(=O)c1ccccc1SSc1ccccc1C(=O)NCC(C)O` (centres unmarked) [Compound V, 2,2'-dithiobis(N-2-hydroxypropylbenzamide)], the inhibition at 1 µg/mL in data set [1] (rabbit PRP, 1 μg/ml) was determined as 10%; in [4] (setting [12]) it was 12.5%; in data set [8] (setting [14]), 25.7%. Further, the inhibition at 3 µg/mL in data set [1] (rabbit PRP, 3 μg/ml) came to 57%; in data set [2] (human PRP, 3 μg/ml), 13%; in [4] (setting [12]) it was 25.5%; in data set [5] (human PRP, 3 μg/ml), 47%; in [8] (setting [14]), 83.5%. Further, the inhibition at 10 µg/mL in data set [1] (rabbit PRP, 10 μg/ml) was 89.6%; in data set [2] (human PRP) it was 39%; in data set [4] (setting [12]) it was 54%; in data set [5] (human PRP), 61%; in [8] (setting [14]), 100%. For the same compound, the inhibition at 30 µg/mL in [1] (rabbit PRP, 30 μg/ml) came to 95%; in [2] (human PRP, 30 μg/ml) it was 100%; in data set [4] (setting [13]), 90%; in data set [5] (human PRP, 30 μg/ml) it was 81%. The figures for the mortality rate with mouse (male dd-strain) (2 g/Kg), in the data set on mouse (male dd-strain) (3 g/Kg) and in the data set on mouse (male dd-strain) (4 g/Kg) were 0/5, 2/5 and 4/5, respectively. Besides, the LD50 in [9] was at least 3000 mg/kg. The IC50 in [4] (rabbit PRP, ADP 10^-5 M) was 7.4 µg/mL (≈ 17.6 µM). The Mortality in data set [6] (oral 25 mg/Kg) is reported as 40%; in data set [6] (oral 50 mg/Kg), 20%; in data set [6] (oral 100 mg/Kg), 20%. For the same compound, the results for the “Score (mortality)” value in [6] (oral 25 mg/Kg), in data set [6] (oral 50 mg/Kg) and in data set [6] (oral 100 mg/Kg) were 8/20, 4/20 and 4/20, respectively.

Regarding `O=C(NCO)c1ccccc1SSc1ccccc1C(=O)NCO` [Compound XV, 2,2'-dithiobis(N-hydroxymethylbenzamide)], the inhibition at 10 µg/mL in [2] (human PRP) stood at 29%; in data set [4] (setting [12]), 0%; in data set [5] (human PRP), 5%; in data set [8] (setting [14]) it was 56%. The inhibition at 30 µg/mL is 68% in data set [2] (human PRP, 30 μg/ml); 46% in [4] (setting [13]); 45% in [5] (human PRP, 30 μg/ml); 100% in data set [8] (rabbit PRP, 30 μg/ml, read-out: percentage of inhibition, collagen). The inhibition at 100 µg/mL in [2] (human PRP, 100 μg/ml) came to 100%; in data set [5] (human PRP, 100 μg/ml) it was 90%. The “Solubility in DMSO, DMF” value in “solubility” (DMSO, DMF, etc.) is “Soluble”. In “solubility” (ethanol, water, and the like), the “Solubility in ethanol, water” value is given as “poorly soluble”. Further, the “Solubility in ether, benzene, chloroform” value in “solubility” (ether, benzene, chloroform, and the like) is on record as “Insoluble”. Further, the inhibition at 3 µg/mL in data set [8] (setting [14]) turned out to be 22%.

In the case of `COc1ccc(Cc2nccc3cc(OC)c(OC)cc23)cc1OC` [papaverine, reference compound], in data set [3], the “effect in reducing mortality (ADP)” value is reported as “ineffective”, the Mortality is 60% and the “Score (mortality)” value is given as 6/10. Also, in data set [4] (setting [10]), the inhibition at 30 µg/mL was 14% and the inhibition at 100 µg/mL worked out at 99%. Moreover, in [8] (setting [11]), the inhibition at 30 µg/mL came out at 34% and the inhibition at 100 µg/mL stood at 100%.
